Experimental data from ChEMBL document CHEMBL1201862, “PubChem BioAssay data set” (2004).
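Following 48 hours of exposure in 96-well plates, responses at five concentrations were used to interpolate endpoints linearly. Abbreviation: GI50, concentration required for 50% inhibition of growth.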 Calls of active or inactive are those of the source. No stated cut-off is given here; in the data, active = GI50 up to about 1.1 µM and inactive = higher.

What was measured:
Assay in all cases: NCI anticancer screen, dose series, 48 h
KM12 = test system: KM12
UACC-62 = test system: UACC-62
NCI/ADR-RES = test system: NCI/ADR-RES
Hs-578T = test system: Hs-578T
IGROV-1 = test system: IGROV-1
ACHN = test system: ACHN
MOLT-4 = test system: MOLT-4
OVCAR-8 = test system: OVCAR-8
786-0 = test system: 786-0
NCI-H226 = test system: NCI-H226
HOP-92 = test system: HOP-92
SF-268 = test system: SF-268
SNB-19 = test system: SNB-19
HL-60 = test system: HL-60
UO-31 = test system: UO-31
MDA-N = test system: MDA-N
HCT-15 = test system: HCT-15
NCI-H23 = test system: NCI-H23
PC-3 = test system: PC-3

| Compound | GI50 (KM12) | GI50 (UACC-62) | GI50 (NCI/ADR-RES) | GI50 (Hs-578T) | GI50 (IGROV-1) | GI50 (ACHN) | GI50 (MOLT-4) | GI50 (OVCAR-8) | GI50 (786-0) | GI50 (NCI-H226) | GI50 (HOP-92) | GI50 (SF-268) | GI50 (SNB-19) | GI50 (HL-60) | GI50 (UO-31) | GI50 (MDA-N) | GI50 (HCT-15) | GI50 (NCI-H23) | GI50 (PC-3) |
| --- | --- | --- | --- | --- | --- | --- | --- | --- | --- | --- | --- | --- | --- | --- | --- | --- | --- | --- | --- |
| COc1ccc(-c2cc3ccccc3oc2=O)cc1OC | > 100 µM (inactive) | > 100 µM (inactive) | > 100 µM (inactive) | > 100 µM (inactive) | > 100 µM (inactive) | > 100 µM (inactive) | > 100 µM (inactive) | > 100 µM (inactive) | 70 µM (inactive) | > 100 µM (inactive) | > 100 µM (inactive) | > 100 µM (inactive) | 90.6 µM (inactive) | > 100 µM (inactive) | > 100 µM (inactive) | > 100 µM (inactive) | > 100 µM | > 100 µM (inactive) | – |
| Cc1ccc(S(=O)(=O)OC2CC(C(C)(C)C)CCC2c2ccccc2)cc1 (stereo unspecified) | 99.8 µM (inactive) | 57.5 µM (inactive) | > 100 µM (inactive) | – | 72.8 µM (inactive) | 54.6 µM (inactive) | 44.6 µM (inactive) | > 100 µM (inactive) | > 100 µM (inactive) | > 100 µM (inactive) | 23.3 µM (inactive) | – | 86.7 µM (inactive) | > 100 µM (inactive) | > 100 µM (inactive) | 99.8 µM (inactive) | > 100 µM | > 100 µM (inactive) | 70 µM (inactive) |
| COc1cc(O)c2c(=O)c3cccc(C)c3[nH]c2c1 | 5.93 µM (inactive) | > 10 µM (inactive) | > 10 µM (inactive) | > 10 µM (inactive) | > 10 µM (inactive) | 7.41 µM (inactive) | 3.99 µM (inactive) | > 10 µM (inactive) | > 10 µM (inactive) | > 10 µM (inactive) | – | > 10 µM (inactive) | > 10 µM (inactive) | > 10 µM (inactive) | – | > 10 µM (inactive) | > 10 µM | > 10 µM (inactive) | > 10 µM (inactive) |
| COc1ccc(/C=C2\C(=O)N(NC(C)=O)c3ccccc32)cc1 | 87.9 µM (inactive) | > 100 µM (inactive) | – | – | > 100 µM (inactive) | > 100 µM (inactive) | 40.9 µM (inactive) | 48.1 µM (inactive) | > 100 µM (inactive) | > 100 µM (inactive) | > 100 µM (inactive) | 80.4 µM (inactive) | > 100 µM (inactive) | – | 37.4 µM (inactive) | – | 67.9 µM | > 100 µM (inactive) | – |
| O=C1CCCCCCCCCCC1CN1CCOCC1 (stereo unspecified) | > 100 µM (inactive) | > 100 µM (inactive) | – | 30.3 µM (inactive) | > 100 µM (inactive) | > 100 µM (inactive) | 66.1 µM (inactive) | > 100 µM (inactive) | > 100 µM (inactive) | > 100 µM (inactive) | > 100 µM (inactive) | > 100 µM (inactive) | > 100 µM (inactive) | > 100 µM (inactive) | > 100 µM (inactive) | > 100 µM (inactive) | > 100 µM | > 100 µM (inactive) | > 100 µM (inactive) |
| CCCCCCCCCC[C@@H](O)[C@H]1CC[C@H]([C@H]2CC[C@H]([C@H](O)CCCCCCCCCC[C@@H]3CC(CC(C)=O)C(=O)O3)O2)O1 (stereo partly specified) | 15.8 µM (inactive) | 1.11 µM (active) | 4.69 µM (inactive) | 7.19 µM (inactive) | > 34.4 µM (inactive) | > 28.5 µM (inactive) | 3.77 µM (inactive) | 7.66 µM (inactive) | 23.2 µM (inactive) | 23.8 µM (inactive) | > 50 µM (inactive) | > 50 µM (inactive) | > 47.3 µM (inactive) | 5.61 µM (inactive) | 23.7 µM (inactive) | – | 28.3 µM | 1.7 µM (inactive) | 21.7 µM (inactive) |
| Nc1nc2c(ncn2Cc2ccccc2CO)c(=O)[nH]1 | > 100 µM (inactive) | > 100 µM (inactive) | > 100 µM (inactive) | > 100 µM (inactive) | > 100 µM (inactive) | > 100 µM (inactive) | > 100 µM (inactive) | > 100 µM (inactive) | > 100 µM (inactive) | > 100 µM (inactive) | > 100 µM (inactive) | > 100 µM (inactive) | > 100 µM (inactive) | > 100 µM (inactive) | > 100 µM (inactive) | – | > 100 µM | > 100 µM (inactive) | > 100 µM (inactive) |
| CC1CCN(CCC(=O)CC(c2ccccc2)c2c(O)c3ccccc3oc2=O)CC1 (stereo unspecified) | > 100 µM (inactive) | > 100 µM (inactive) | – | – | > 100 µM (inactive) | > 100 µM (inactive) | > 100 µM (inactive) | > 100 µM (inactive) | > 100 µM (inactive) | 80 µM (inactive) | – | > 100 µM (inactive) | > 100 µM (inactive) | > 100 µM (inactive) | > 100 µM (inactive) | – | > 100 µM | > 100 µM (inactive) | – |
| N#CCc1nc(-c2cc3c(ccc4ccccc43)oc2=O)cs1 | 33.6 µM (inactive) | 21.7 µM (inactive) | 23 µM (inactive) | 20.3 µM (inactive) | 15.2 µM (inactive) | 27.5 µM (inactive) | > 100 µM (inactive) | 28.5 µM (inactive) | 22.2 µM (inactive) | 24.7 µM (inactive) | 20.3 µM (inactive) | 31.6 µM (inactive) | 19.1 µM (inactive) | > 100 µM (inactive) | 38.9 µM (inactive) | – | 69.3 µM | – | 65.5 µM (inactive) |
| NNC(=O)c1ccc(-n2nnc(C(=O)NN)c2C(=O)NN)cc1 | > 100 µM (inactive) | – | > 100 µM (inactive) | – | – | > 100 µM (inactive) | > 100 µM (inactive) | > 100 µM (inactive) | > 100 µM (inactive) | – | > 100 µM (inactive) | – | > 100 µM (inactive) | > 100 µM (inactive) | > 100 µM (inactive) | > 100 µM (inactive) | > 100 µM | > 100 µM (inactive) | > 100 µM (inactive) |
| O=c1[nH]c2cc(F)c(F)cc2nc1Cc1ccccc1 | > 100 µM (inactive) | > 100 µM (inactive) | > 100 µM (inactive) | > 100 µM (inactive) | > 100 µM (inactive) | > 100 µM (inactive) | 16.1 µM (inactive) | > 100 µM (inactive) | > 100 µM (inactive) | > 100 µM (inactive) | > 100 µM (inactive) | > 100 µM (inactive) | > 100 µM (inactive) | > 100 µM (inactive) | > 100 µM (inactive) | – | > 100 µM | > 100 µM (inactive) | > 100 µM (inactive) |
| CCOC(=O)C(=Cc1ccccc1Br)C(=O)OCC | 1.62 µM (inactive) | 1.72 µM (inactive) | 4.65 µM (inactive) | 3.4 µM (inactive) | 1.96 µM (inactive) | 2.59 µM (inactive) | 0.32 µM (active) | 2.38 µM (inactive) | 3.05 µM (inactive) | 3.51 µM (inactive) | 3.4 µM (inactive) | 3.11 µM (inactive) | 2.53 µM (inactive) | 0.585 µM (active) | 2.25 µM (inactive) | – | 1.67 µM | 2.48 µM (inactive) | 2.93 µM (inactive) |
| CCOC(=O)C1=CC(C)(C(=O)OCC)Nc2c(nc(SC)n(C)c2=O)N1 (stereo unspecified) | > 10 µM (inactive) | – | > 10 µM (inactive) | – | > 10 µM (inactive) | > 10 µM (inactive) | > 10 µM (inactive) | > 10 µM (inactive) | > 10 µM (inactive) | > 10 µM (inactive) | > 10 µM (inactive) | > 10 µM (inactive) | > 10 µM (inactive) | – | > 10 µM (inactive) | > 10 µM (inactive) | > 10 µM | > 10 µM (inactive) | > 10 µM (inactive) |
| O=C(NC(=S)NC(=O)c1cc(O)c(O)c(O)c1)c1cc(O)c(O)c(O)c1 | 24.5 µM (inactive) | 23.7 µM (inactive) | 23.4 µM (inactive) | – | – | 23 µM (inactive) | > 10 µM (inactive) | 20.7 µM (inactive) | 20 µM (inactive) | 39.1 µM (inactive) | 32.7 µM (inactive) | 31.1 µM (inactive) | 24.2 µM (inactive) | – | 22.4 µM (inactive) | 2.65 µM (inactive) | 23.9 µM | 23.7 µM (inactive) | 19.7 µM (inactive) |
| COc1ccc(-c2cc(-c3ccc(Nc4ccnc5cc(Cl)ccc45)cc3)[nH]c(=O)c2C#N)cc1 | 2.86 µM (inactive) | > 100 µM (inactive) | > 100 µM (inactive) | > 100 µM (inactive) | > 100 µM (inactive) | > 100 µM (inactive) | > 100 µM (inactive) | > 100 µM (inactive) | > 100 µM (inactive) | > 100 µM (inactive) | > 100 µM (inactive) | > 100 µM (inactive) | 77.4 µM (inactive) | > 100 µM (inactive) | > 100 µM (inactive) | – | > 100 µM | > 100 µM (inactive) | > 100 µM (inactive) |
| Nc1ccccc1Nc1ccccc1C(=O)[O-].Nc1ccccc1Nc1ccccc1C(=O)[O-].[Zn+2] | > 100 µM (inactive) | 25.1 µM (inactive) | – | – | 40.6 µM (inactive) | > 100 µM (inactive) | > 100 µM (inactive) | > 100 µM (inactive) | > 100 µM (inactive) | – | – | 45.6 µM (inactive) | > 100 µM (inactive) | – | > 100 µM (inactive) | – | > 100 µM | > 100 µM (inactive) | – |
| O=C1Cc2c([nH]c3c(Cl)cccc23)-c2ccccc2N1 | > 100 µM (inactive) | > 100 µM (inactive) | – | 87.3 µM (inactive) | > 100 µM (inactive) | > 100 µM (inactive) | > 100 µM (inactive) | > 100 µM (inactive) | > 100 µM (inactive) | > 100 µM (inactive) | 95.7 µM (inactive) | > 100 µM (inactive) | > 100 µM (inactive) | > 100 µM (inactive) | > 100 µM (inactive) | > 100 µM (inactive) | > 100 µM | > 100 µM (inactive) | > 100 µM (inactive) |
